Source: PMC6435570, “Zafirlukast Is a Dual Modulator of Human Soluble Epoxide Hydrolase and Peroxisome Proliferator-Activated Receptor γ” (Frontiers in Pharmacology, 2019)
pIC50: −log10 of the molar value. “Also recorded” adds a separate entry of the source.

Legend:
[1] = target: T1, PPARγ-LBD / CBP-derived peptide (Homo sapiens, UniProt P37231); assay: PPARγ coactivator (CBP) recruitment assay, HT-FRET; format: biochemical; settings: for Induction of CBP recruitment by the compound itself: absence of rosiglitazone
T1 construct: 12 nM recombinant PPARγ-LBD fused to N-terminal GFP as FRET acceptor
T1 sequence (P37231 238-503 limits assumed): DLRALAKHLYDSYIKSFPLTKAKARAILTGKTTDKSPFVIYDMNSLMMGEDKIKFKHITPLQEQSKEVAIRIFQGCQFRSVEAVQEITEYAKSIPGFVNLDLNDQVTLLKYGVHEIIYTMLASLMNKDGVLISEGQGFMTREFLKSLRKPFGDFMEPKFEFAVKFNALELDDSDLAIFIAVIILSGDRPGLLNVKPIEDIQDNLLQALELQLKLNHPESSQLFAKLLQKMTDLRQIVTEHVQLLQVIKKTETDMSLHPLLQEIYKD
Description: Recruitment of coactivator-derived peptides to the PPARγ-LBD was studied by homogeneous time-resolved fluorescence resonance energy transfer (HT-FRET). Terbium cryptate as streptavidin conjugate (Cisbio assays, France) was used as FRET donor. Peptides derived from the coactivator cyclic AMP response element-binding protein (CREB)-binding protein (CBP) [biotin-[…]] encompassing the coactivator consensus motif LxxLL and N-terminal biotin for stable coupling to streptavidin were purchased from Eurogentec GmbH (Cologne, Germany). Solutions containing 12 nM recombinant PPARγ-LBD fused to N-terminal GFP as FRET acceptor and 12 nM FRET donor complex with the CBP-derived peptide as well as 1% DMSO with test compound at varying concentrations or DMSO alone were prepared in HEPES buffer [25 mM HEPES pH 7.5 adjusted with KOH, 150 mM KF, 5% (w/v) glycerol, 0.1% (w/v) CHAPS, 5 mM DTT]. After 2 h incubation at RT, the fluorescence intensities (FI) at 520 nm (acceptor) and 620 nm (donor reference) after excitation at 340 nm were recorded on a Tecan Infinite F200 (Tecan Group Ltd., Männedorf, Switzerland). FI520nm was divided by FI620nm and multiplied with 10,000 giving a dimensionless HTRF signal. Recruitment of coactivator-derived peptides to the PPARγ-LBD was validated with increasing concentrations of rosiglitazone. Recruitment of CBP was referenced to recruitment in response to 1 μM rosiglitazone (∼EC80) and reported as relative coactivator recruitment.
(§1) We induced this post-translational modification by short-term treatment of the differentiated cells with the cytokine TNFα, generating a pro-inflammatory milieu. […] For this, we used an assay system in which the recruitment of the fluorescence-tagged PPARγ coactivator CBP to the PPARγ-LBD was assessed by time-resolved FRET technique in presence and absence of rosiglitazone.

[2] = tested on: 3T3-L1 cells; assay: WST-1 assay (mitochondrial activity) in differentiating 3T3-L1 cells; format: cell-based, murine; settings: 48 h with differentiation cocktail
Description: For measurement of cell proliferation, 3T3-L1 cells were seeded in 24-well plates (0.55 × 10^5/well) instead of 6-wells and the differentiation was carried out as described in the section ‘Adipocyte differentiation’. After 2 days of incubation with the differentiation cocktail with or without the PPARγ agonists, WST-1 reagent (Roche Diagnostic GmbH, Mannheim, Germany) was added (1:10) to the supernatant of the differentiating cells. Then, the cells were further incubated for 2 h at 37°C, 5% CO2 to allow color development. After this, cell supernatant absorbance was measured (λabs = 450 nm) and corrected to a reference wavelength (λabs = 690 nm) with an Infinite F200 plate reader (Tecan Group Ltd., Männedorf, Switzerland). After this, background absorbance was subtracted from all measurements and values were normalized to the differentiated control receiving the differentiation cocktail without addition of a PPARγ agonist (w/o).
In addition to lipid accumulation, mitochondrial activity of 3T3-L1 cells during differentiation was investigated by the turnover of the tetrazolium salt WST-1 into a formazan dye. This provides not only further information on the metabolic capacity of the cells after differentiation but can also indicate toxicity of compounds. For this, 3T3-L1 cells were treated with the differentiation cocktail in the presence or absence of PPARγ agonists for 48 h. After this, WST-1 turnover as a measure for mitochondrial activity was assessed (Figure 2C).

[3] = tested on: PPARγ2 phosphorylation at serine 273; assay: TNFα triggered PPARγ Ser273 phosphorylation in 3T3-L1 adipocytes (Western Blot); format: cell-based, murine; settings: zafirlukast 1 or 10 μM or rosiglitazone 2 μM for 45 min, then TNFα 50 ng/mL 30 min
Description: Total 3T3-L1 or HEP-G2 cell lysates were prepared in lysis buffer (20 mM Tris-HCl, pH 7.4, 150 mM NaCl, 2 mM EDTA, 1% Triton X-100, 0.5% NP-40) supplemented with protease and phosphatase inhibitors (PhosSTOP^TM + cOmplete^TM Mini, Roche Diagnostics GmbH, Mannheim, Germany). Protein concentrations were quantified using the Pierce^TM BCA Protein Assay Kit (Thermo Scientific, Waltham, MA, United States). Total protein (30 μg/lane) was separated by SDS-polyacrylamide gel electrophoresis and transferred to nitrocellulose membranes (GE Healthcare Life Sciences, Little Chalfont, United Kingdom). Membranes were blocked with Odyssey blocking reagent (LI-COR Biosciences, Bad Homburg, Germany) for 1 h at room temperature. […] Afterwards, membranes were washed and incubated with fluorescence conjugated secondary antibodies (IRDye, LI-COR Biosciences, Bad Homburg, Germany). […] The density of the immune reactive bands was analyzed using the Image Studio 5.2 software (LI-COR Biosciences, Bad Homburg, Germany).
as §1

[4] = tested on: CysLT1R; settings: Table 2 comparison column; no method, no reference given; cited from earlier work
[5] = set-up: method as in Brocks et al., 1996; Knorr et al., 2001; Karonen et al., 2012; settings: single oral dose of 20 mg; ref Brocks et al., 1996; Knorr et al., 2001; Karonen et al., 2012; cited from earlier work
[6] = set-up: method as in Brocks et al., 1996; Knorr et al., 2001; Karonen et al., 2012; settings: ref Brocks et al., 1996; Knorr et al., 2001; Karonen et al., 2012; cited from earlier work

Compound | Induction of CBP recruitment by the compound itself [1] | Antagonism of rosiglitazone induced CBP recruitment ([1]; presence of rosiglitazone (1 μM)) | WST-1 turnover (mitochondrial activity) versus w/o control ([2]; 10 μM) | pIC50 ([1]; rosiglitazone 1 μM, after 2 h, read-out: IC50 for antagonism of rosiglitazone induced CBP recruitment) | WST-1 turnover (mitochondrial activity) versus w/o control ([2]; 1 μM) | WST-1 turnover (mitochondrial activity) versus w/o control ([2]; 5 and 10 μM) | TNFα induced phosphorylation of PPARγ2 at serine 273 [3] | pIC50 [4] | Peak serum level [5] | Plasma protein binding [6]
CC(C)(O)c1ccccc1CC[C@@H](SCC1(CC(=O)O)CC1)c1cccc(/C=C/c2ccc3ccc(Cl)cc3n2)c1 [Montelukast, montelukast] | did not induce CBP recruitment itself in concentrations up to 20 μM | weakly antagonized the rosiglitazone induced CBP recruitment in concentrations above 3 μM | over threefold | – | – | – | – | – | – | –
COc1cc(C(=O)NS(=O)(=O)c2ccccc2C)ccc1Cc1cn(C)c2ccc(NC(=O)OC3CCCC3)cc12 [Zafirlukast, zafirlukast] | did not induce CBP recruitment itself | – | – | 5.33 | threefold | comparable to the w/o control; also recorded: had no influence on mitochondrial activity | inhibited this phosphorylation; also recorded: completely revert this phosphorylation | 8.30 | about 1 μM | High
